# Test results as given in patent US8557800B2, “Sphingosine kinase inhibitors” (Apogee Biotechnology Corporation, priority 2005, dated 2013).
# pIC50: −log10 of the molar value.
# Test system: MCF-7 human breast adenocarcinoma cells
# Assay: Cytotoxicity, SRB binding assay
# Type: cell-based
# Details: MCF7, inhibition of cell proliferation, 48 h, read-out: MCF-7 IC50
# Description: To further assess the biological efficacies of the Compounds in intact cells, each Compound was evaluated for cytotoxicity using human cancer cell lines. These experiments followed methods that have been extensively used. Cell lines tested included MCF-7 human breast adenocarcinoma cells and MCF-10A non-transformed human breast epithelial cells. The indicated cell lines were treated with varying doses of the test Compound for 48 h. Cell survival was then determined using the SRB binding assay (Skehan et al., 1990, J Natl Cancer Inst 82: 1107), and the concentration of compound that inhibited proliferation by 50% (the IC50) was calculated. Values (in μM) represent the mean±sd for replicate trials.
row,SMILES,pIC50
1,"CC(NN1CCN(C)CC1)C12CC3CC(CC(c4ccc(Cl)cc4)(C3)C1)C2 (stereo not drawn) [Compound 108, {1-[3-(4-Chloro-phenyl)-adamantan-1-yl]-ethyl}-(4-methyl-piperazin-1-yl)-amine]",5.30
2,"CC(NC(C)C12CC3CC(CC(c4ccc(Cl)cc4)(C3)C1)C2)c1ccc(Br)cc1 (stereo not drawn) [Compound 101, [1-(4-Bromo-phenyl)-ethyl]-{1-[3-(4-chloro-phenyl)-adamantan-1-yl]-ethyl}-amine]",5.00
3,"CC(NCc1ccccc1)C12CC3CC(CC(c4ccc(F)cc4)(C3)C1)C2 (stereo not drawn) [Compound 98, Benzyl-{1-[3-(4-fluoro-phenyl)-adamantan-1-yl]-ethyl}-amine]",5.52
4,"CC(NC(=O)Nc1ccc(Cl)c(C(F)(F)F)c1)C12CC3CC(CC(c4ccc(Cl)cc4)(C3)C1)C2 (stereo not drawn) [Compound 117, 1-{1-[3-(4-Chloro-phenyl)-adamantan-1-yl]-ethyl}-3-(4-chloro-3-trifluoromethyl-phenyl)-urea]",5.52
5,"CC(NCc1ccncc1)C12CC3CC(CC(c4ccccc4)(C3)C1)C2 (stereo not drawn) [Compound 109, [1-(3-Phenyl-adamantan-1-yl)-ethyl]-pyridin-4-ylmethyl-amine]",4.59
6,"CC(NCCc1ccncc1)C12CC3CC(CC(c4ccc(Cl)cc4)(C3)C1)C2 (stereo not drawn) [Compound 111, {1-[3-(4-Chloro-phenyl)-adamantan-1-yl]-ethyl}-(2-pyridin-4-yl-ethyl)-amine]",4.89
7,"CC(NCc1ccc(C(C)(C)C)cc1)C12CC3CC(CC(c4ccc(Cl)cc4)(C3)C1)C2 (stereo not drawn) [Compound 100, (4-tert-Butyl-benzyl)-{1-[3-(4-chloro-phenyl)-adamantan-1-yl]-ethyl}-amine]",6.52
8,"O=C(/C=C/c1cc(-c2ccccc2)cs1)C12CC3CC(C1)CC(c1ccc(Cl)cc1)(C3)C2 [Compound 137, 1-[3-(4-Chloro-phenyl)-adamantan-1-yl]-3-(4-phenyl-thiophen-2-yl)-propenone]",5.05
9,"CC(NCc1cc(-c2ccccc2)cs1)C12CC3CC(CC(c4ccc(Cl)cc4)(C3)C1)C2 (stereo not drawn) [Compound 120, {1-[3-(4-Chloro-phenyl)-adamantan-1-yl]-ethyl}-(4-phenyl-thiophen-2-ylmethyl)-amine]",3.97
10,"CC(C)NCC12CC3CC(C1)CC(c1ccc(Cl)cc1)(C3)C2 [Compound 75, [3-(4-Chloro-phenyl)-adamantan-1-ylmethyl]-isopropyl-amine]",4.96
11,"Cc1cc2cc(NC(C)C34CC5CC(CC(c6ccc(Cl)cc6)(C5)C3)C4)ccc2[nH]1 (stereo not drawn) [Compound 113, {1-[3-(4-Chloro-phenyl)-adamantan-1-yl]-ethyl}-(2-methyl-1H-indol-5-yl)-amine]",4.85
12,"CC(NCc1ccc(Cl)nc1)C12CC3CC(CC(c4ccc(Cl)cc4)(C3)C1)C2 (stereo not drawn) [Compound 110, {1-[3-(4-Chloro-phenyl)-adamantan-1-yl]-ethyl}-(6-chloro-pyridin-3-ylmethyl)-amine]",5.22
13,"CC(NCCc1ccc(Br)cc1)C12CC3CC(CC(C3)C1)C2 (stereo not drawn) [Compound 102, (1-Adamantan-1-yl-ethyl)-[2-(4-bromo-phenyl)-ethyl]-amine]",5.70
14,"CC(Nc1ccccc1)C12CC3CC(CC(c4ccc(F)cc4)(C3)C1)C2 (stereo not drawn) [Compound 94, {1-[3-(4-Fluoro-phenyl)-adamantan-1-yl]-ethyl}-phenyl-amine]",6.22
15,"O=C(NCc1cccc(C(F)(F)F)c1)C12CC3CC(C1)CC(c1ccc(Cl)cc1)(C3)C2 [Compound 15, 3-(4-Chloro-phenyl)-adamantane-1-carboxylic acid 3-trifluoromethyl-benzylamide]",< 3.95
16,"CC(NCc1cc(Br)cs1)C12CC3CC(CC(c4ccc(Cl)cc4)(C3)C1)C2 (stereo not drawn) [Compound 119, (4-Bromo-thiophen-2-ylmethyl)-{1-[3-(4-chloro-phenyl)-adamantan-1-yl]-ethyl}-amine]",4.96
17,"CC(NCc1cnc[nH]1)C12CC3CC(CC(c4ccc(Cl)cc4)(C3)C1)C2 (stereo not drawn) [Compound 112, {1-[3-(4-Chloro-phenyl)-adamantan-1-yl]-ethyl}-(3H-imidazol-4-ylmethyl)-amine]",5.30
18,"O=C(NCc1ccc(C(F)(F)F)cc1F)C12CC3CC(C1)CC(c1ccc(Cl)cc1)(C3)C2 [Compound 19, 3-(4-Chloro-phenyl)-adamantane-1-carboxylic acid 2-fluoro-4-trifluoromethyl-benzylamide]",< 3.97
19,"CC(NCc1ccccc1)C12CC3CC(CC(c4ccc(Cl)cc4)(C3)C1)C2 (stereo not drawn) [Compound 99, Benzyl-{1-[3-(4-chloro-phenyl)-adamantan-1-yl]-ethyl}-amine]",6.15
20,"CCn1c2ccccc2c2cc(CNC(C)C34CC5CC(CC(c6ccc(Cl)cc6)(C5)C3)C4)ccc21 (stereo not drawn) [Compound 115, {1-[3-(4-Chloro-phenyl)-adamantan-1-yl]-ethyl}-(9-ethyl-9H-carbazol-3-ylmethyl)-amine]",6.00
21,"CC(NCc1ccccc1)C12CC3CC(CC(c4ccccc4)(C3)C1)C2 (stereo not drawn) [Compound 97, Benzyl-[1-(3-phenyl-adamantan-1-yl)-ethyl]-amine]",6.30
22,"CCn1c2ccccc2c2cc(C(=O)NC(C)C34CC5CC(CC(c6ccc(Cl)cc6)(C5)C3)C4)ccc21 (stereo not drawn) [Compound 116, 9-Ethyl-9H-carbazole-3-carboxylic acid {1-[3-(4-chloro-phenyl)-adamantan-1-yl]-ethyl}-amide]",5.22

# Test system: recombinant human SK
# Assay: Inhibition of recombinant human SK, LC/MS/MS assay
# Type: biochemical
# Details: 6 μg/ml compound
# Description: SK activity is measured by incubation of the recombinant SK with [^3H]sphingosine and 1 mM ATP under defined conditions, followed by extraction of the assay mixture with chloroform:methanol under basic conditions. […] Radioactivity in aliquots of the aqueous phase is then quantified as a measure of [^3H]S1P formation.
# In an alternate assay procedure, the recombinant human SK was incubated with unlabeled sphingosine and ATP as described above. After 30 minutes, the reactions were terminated by the addition of acetonitrile to directly extract the newly synthesized S1P. The amount of S1P in the samples is then quantified as follows. C17 base D-erythro-sphingosine and C17 SIP are used as internal standards for sphingosine and S1P, respectively. […] The lipids are then fractionation by High-Performance Liquid Chromatography using a C8-reverse phase column eluted with 1 mM methanolic ammonium formate/2 mM aqueous ammonium formate. […] Calibration curves are generated by plotting the peak area ratios of the synthetic standards for each sphingolipid, and used to determine the normalized amounts of sphingosine and S1P in the samples.
# Each Compound of this invention was tested for its ability to inhibit recombinant SK using the LC/MS/MS assay described above.
row,SMILES,Recombinant SK (% inhibition) [%]
1,"Clc1ccc(C23CC4CC(CC(CNCCc5cccc(Oc6ccccc6)c5)(C4)C2)C3)cc1 [Compound 81, [3-(4-Chloro-phenyl)-adamantan-1-ylmethyl]-[2-(3-phenoxy-phenyl)-ethyl]-amine]",67
2,"O=C(NCCCn1ccnc1)C12CC3CC(C1)CC(c1ccc(Cl)cc1)(C3)C2 [Compound 65, 3-(4-Chloro-phenyl)-adamantane-1-carboxylic acid (3-imidazol-1-yl-propyl)-amide]",3
3,"CC(NC(=O)Nc1ccc(Cl)c(C(F)(F)F)c1)C12CC3CC(CC(c4ccc(Cl)cc4)(C3)C1)C2 (stereo not drawn) [Compound 118, 1-{1-[3-(4-Chloro-phenyl)-adamantan-1-yl]-ethyl}-3-(4-chloro-3-trifluoromethyl-phenyl)-urea]",77
4,"FC(F)(F)c1ccc(CNCC23CC4CC(C2)CC(c2ccc(Cl)cc2)(C4)C3)cc1 [Compound 77, [3-(4-Chloro-phenyl)-adamantan-1-ylmethyl]-(4-trifluoromethyl-benzyl)-amine]",27
5,"O=C(NCc1ccncc1)C12CC3CC(C1)CC(c1ccc(F)cc1)(C3)C2 [Compound 61, 3-(4-Fluoro-phenyl)-adamantane-1-carboxylic acid (pyridin-4-ylmethyl)-amide]",58
6,"O=C(NCCCc1ccccc1)C12CC3CC(C1)CC(c1ccc(Cl)cc1)(C3)C2 [Compound 48, 3-(4-Chloro-phenyl)-adamantane-1-carboxylic acid (3-phenyl-propyl)-amide]",36
7,"O=C(NCCN1CCNCC1)C12CC3CC(C1)CC(c1ccc(Cl)cc1)(C3)C2 [Compound 59, 3-(4-Chloro-phenyl)-adamantane-1-carboxylic acid (2-piperazin-1-yl-ethyl)-amide]",0
8,"CN1CCC(NCC23CC4CC(C2)CC(c2ccc(Cl)cc2)(C4)C3)CC1 [Compound 82, [3-(4-Chloro-phenyl)-adamantan-1-ylmethyl]-(1-methyl-piperidin-4-yl)-amine]",75
9,"FC(F)(F)Oc1ccc(CNCC23CC4CC(C2)CC(c2ccc(Cl)cc2)(C4)C3)cc1 [Compound 80, [3-(4-Chloro-phenyl)-adamantan-1-ylmethyl]-(4-trifluoromethoxy-benzyl)-amine]",5
10,"CC(C)(C)NCCCNCC12CC3CC(C1)CC(c1ccc(Cl)cc1)(C3)C2 [Compound 84, N-tert-Butyl-N′-[3-(4-chloro-phenyl)-adamantan-1-ylmethyl]-propane-1,3-diamine]",84
11,"O=C(Nc1nnn[nH]1)C12CC3CC(C1)CC(c1ccc(Cl)cc1)(C3)C2 [Compound 67, 3-(4-Chloro-phenyl)-adamantane-1-carboxylic acid (1H-tetrazol-5-yl)-amide]",10
12,"Fc1ccc(CNCC23CC4CC(C2)CC(c2ccc(Cl)cc2)(C4)C3)cc1C(F)(F)F [Compound 79, [3-(4-Chloro-phenyl)-adamantan-1-ylmethyl]-(4-fluoro-3-trifluoromethyl-benzyl)-amine]",19
13,"O=C1CCCN1CCCNC(=O)C12CC3CC(C1)CC(c1ccc(Cl)cc1)(C3)C2 [Compound 55, 3-(4-Chloro-phenyl)-adamantane-1-carboxylic acid [3-(2-oxo-pyrrolidin-1-yl)-propyl]-amide]",8
14,"Clc1ccc(C23CC4CC(CC(CNCCCN5CCCC5)(C4)C2)C3)cc1 [Compound 85, [3-(4-Chloro-phenyl)-adamantan-1-ylmethyl]-(3-pyrrolidin-1-yl-propyl)-amine]",0
